From PubChem BioAssay AID330 (DTP/NCI, 2004) come the findings set out here.

Structures are written as SMILES. Values joined by “and” are separate entries in the source; they are usually repeats but may differ in a detail not shown here. Equal entries are not always repeated. Inconclusive results and toxic doses are left out.

The test system of this assay is P388 leukemia ip, CD2F1 mice, survival T/C. The assay is described as follows: NCI In Vivo Anticancer Drug Screen. Data for tumor model P388 Leukemia (intraperitoneal) in CD2F1 (CDF1) mice. The note with it: endpoint: median survival time, higher = longer survival. Put shortly: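 Mice carrying the transplanted tumor received test compound or vehicle. Survival was recorded in each group, and the value is the treated-group measurement divided by that of the vehicle-treated control group.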

[1] abbreviates: dose: 3.12 mg/kg/injection, schedule: Q01DX005 (ip), vehicle: Klucel (hydroxypropylcellulose) (HPC).
The mark [2] stands for this setting: dose: 6.25 mg/kg/injection, schedule: Q01DX005 (ip), vehicle: Klucel (hydroxypropylcellulose) (HPC).
[3] abbreviates: dose: 12.5 mg/kg/injection, schedule: Q01DX005 (ip), vehicle: Klucel (hydroxypropylcellulose) (HPC).
Where [4] appears, read: dose: 50.0 mg/kg/injection, schedule: Q01DX005 (ip), vehicle: Klucel (hydroxypropylcellulose) (HPC).
[5] abbreviates: dose: 25.0 mg/kg/injection, schedule: Q01DX005 (ip), vehicle: Klucel (hydroxypropylcellulose) (HPC).
Setting [6] is: dose: 100.0 mg/kg/injection, schedule: Q01DX005 (ip), vehicle: Klucel (hydroxypropylcellulose) (HPC).
Where [7] appears, read: dose: 50.0 mg/kg/injection, schedule: Q01DX005 (ip), vehicle: saline with Tween-80.
Where [8] appears, read: dose: 100.0 mg/kg/injection, schedule: Q01DX005 (ip), vehicle: saline with Tween-80.
Where [9] appears, read: dose: 200.0 mg/kg/injection, schedule: Q01DX005 (ip), vehicle: saline with Tween-80.
The mark [10] stands for this setting: dose: 6.25 mg/kg/injection, schedule: Q01DX009 (ip), vehicle: saline.
Setting [11] is: dose: 12.5 mg/kg/injection, schedule: Q01DX009 (ip), vehicle: saline.
The mark [12] stands for this setting: dose: 25.0 mg/kg/injection, schedule: Q01DX009 (ip), vehicle: saline.
[13] abbreviates: dose: 50.0 mg/kg/injection, schedule: Q01DX009 (ip), vehicle: saline.
[14] abbreviates: dose: 100.0 mg/kg/injection, schedule: Q01DX009 (ip), vehicle: saline.
Where [15] appears, read: dose: 200.0 mg/kg/injection, schedule: Q01DX009 (ip), vehicle: saline.
Where [16] appears, read: dose: 10.0 mg/kg/injection, schedule: Q01DX009 (ip), vehicle: saline with Tween-80.

As to `Nc1[nH]c(=O)[nH]c(=O)c1N=O`, the T/C runs as follows: (dose: 60.0 mg/kg/injection, schedule: Q01DX005 (ip), vehicle: Klucel (hydroxypropylcellulose) (HPC)) 101 % of control and 96 % of control; (dose: 120.0 mg/kg/injection, schedule: Q01DX005 (ip), vehicle: Klucel (hydroxypropylcellulose) (HPC)) 101 % of control and 108 % of control; (dose: 240.0 mg/kg/injection, schedule: Q01DX005 (ip), vehicle: Klucel (hydroxypropylcellulose) (HPC)) 104 % of control and 98 % of control.
Turning to `CCCCCOCC(=O)O`, the T/C runs as follows: (dose: 25.0 mg/kg/injection, schedule: Q01DX009 (ip), vehicle: saline with Tween-80) 104 % of control; (dose: 50.0 mg/kg/injection, schedule: Q01DX009 (ip), vehicle: saline with Tween-80) 94 % of control; (dose: 100.0 mg/kg/injection, schedule: Q01DX009 (ip), vehicle: saline with Tween-80) 96 % of control.
On to `C=C(Cl)C(=NC1CCCCC1)NC(C)(C)C`, for which the T/C is 97 % of control (dose: 0.79 mg/kg/injection, schedule: Q01DX005 (ip), vehicle: Klucel (hydroxypropylcellulose) (HPC)); 101 % of control and 107 % of control (dose: 1.56 mg/kg/injection, schedule: Q01DX005 (ip), vehicle: Klucel (hydroxypropylcellulose) (HPC)); 104 % of control and 107 % of control and 109 % of control under setting [1]; 116 % of control under setting [2]; 110 % of control under setting [3].
Consider `C=C1C(=O)OC2/C=C(\CO)C3OC3C3OC3(C)CC(OC(=O)/C(=C/C)CO)C12` (configuration not stated), for which the T/C is 99 % of control and 106 % of control under setting [1]; 100 % of control and 107 % of control and 110 % of control under setting [2]; 105 % of control and 106 % of control under setting [3]; 100 % of control and 109 % of control under setting [4].
For the compound `COC1=C(C)C2CC(OC)OC3CC4CCCCC4(C)C(C1=O)C32C` (configuration not stated), the T/C runs as follows: under setting [5], 105 % of control; under setting [4], 99 % of control; under setting [6], 92 % of control.
On to `C/C(N=NC(=S)N1CCCCC1C)=C1\C=CC=CN1O` (configuration not stated), for which the T/C under setting [7] is 110 % of control, the T/C under setting [8] is 97 % of control and the T/C under setting [9] was 104 % of control.
`[N-]=[N+]=CC(=O)NC(Cc1ccccc1)C(=O)NN` (configuration not stated): the T/C runs as follows: under setting [5], 107 % of control; under setting [4], 98 % of control; under setting [6], 110 % of control.
As to `C=C(COC(=O)Nc1cc(Cl)ccc1C)C(=O)O`, for the setting “dose: 50.0 mg/kg/injection, schedule: Q01DX009 (ip), vehicle: Klucel (hydroxypropylcellulose) (HPC)”, the T/C is 105 % of control.
On to `C[N+](C)(C)CC(O)c1ccc(O)c(O)c1` (configuration not stated), for which the T/C was 113 % of control under setting [10], 100 % of control under setting [11], 97 % of control under setting [12] and 100 % of control under setting [13].
As for `O=c1[nH]nc(OCCO)c2ccccc12`, the T/C is 100 % of control under setting [4]; 98 % of control under setting [6]; 99 % of control (dose: 200.0 mg/kg/injection, schedule: Q01DX005 (ip), vehicle: Klucel (hydroxypropylcellulose) (HPC)).
As for `Nc1nc2nc3c(nc2c(=O)[nH]1)C(=O)N(c1ccc(C(=O)O)cc1)C3`, the T/C (dose: 6.25 mg/kg/injection, schedule: Q04DX003 (ip), vehicle: saline with Tween-80) was 111 % of control; the T/C (dose: 12.5 mg/kg/injection, schedule: Q04DX003 (ip), vehicle: saline with Tween-80) is 98 % of control; the T/C (dose: 25.0 mg/kg/injection, schedule: Q04DX003 (ip), vehicle: saline with Tween-80) was 100 % of control and 103 % of control.
For `Cn1c(C(=O)c2cc3ccccc3n2C)cc2ccccc21`, the T/C is, setting by setting: under setting [13], 100 % of control; under setting [14], 97 % of control; under setting [15], 103 % of control.
Consider `O=C(ON1C(=O)CCC1=O)C1CCC(CN2C(=O)C=CC2=O)CC1` (configuration not stated), for which the T/C (dose: 100.0 mg/kg/injection, schedule: Q04DX002 (ip), vehicle: saline with Tween-80) is 120 % of control.
For the compound `C=C1C(=O)OC2/C=C(\C)C(=O)CC3OC(C)(C)OC3(C)CC(OC(=O)/C(C)=C/C)C12` (configuration not stated), the T/C reads like this: under setting [16], 99 % of control; (dose: 20.0 mg/kg/injection, schedule: Q01DX009 (ip), vehicle: saline with Tween-80) 105 % of control; (dose: 40.0 mg/kg/injection, schedule: Q01DX009 (ip), vehicle: saline with Tween-80) 90 % of control.
`CCCCN(C)/N=N/c1[nH]ncc1C(=O)OCC`: the T/C runs as follows: (dose: 100.0 mg/kg/injection, schedule: Q01DX009 (ip), vehicle: other) 120 % of control; (dose: 200.0 mg/kg/injection, schedule: Q01DX009 (ip), vehicle: other) 116 % of control.
On to `NCCCCC(C(=O)NC(CCC(=O)OCc1ccccc1)C(=O)Oc1ccc([N+](=O)[O-])cc1)N(C(=O)OCc1ccccc1)C(=O)OCc1ccccc1` (configuration not stated), for which the T/C runs as follows: under setting [7], 100 % of control; under setting [8], 100 % of control; under setting [9], 92 % of control.
Regarding `CCCCCCCCCCCCCCCCS(=O)(=O)c1ccc(S(=O)(=O)N/N=c2/sc3ccccc3n2C)cc1C(=O)O`, the T/C under setting [10] is 103 % of control, the T/C under setting [11] is 97 % of control, the T/C under setting [12] was 94 % of control and the T/C under setting [14] is 88 % of control.
For the compound `Cc1cnc(NCCCCCCNc2ncc(C)c(-c3ccccc3O)n2)nc1-c1ccccc1O`, the T/C (dose: 100.0 mg/kg/injection, schedule: Q04DX003 (ip), vehicle: saline with Tween-80) was 91 % of control; the T/C (dose: 200.0 mg/kg/injection, schedule: Q04DX003 (ip), vehicle: saline with Tween-80) is 97 % of control; the T/C (dose: 400.0 mg/kg/injection, schedule: Q04DX003 (ip), vehicle: saline with Tween-80) is 91 % of control.
Take `CCN(CC)CCCC(C)Nc1cc(C)nc(Nc2nc3cc(Cl)c(Cl)cc3[nH]2)n1` (configuration not stated): the T/C (dose: 2.5 mg/kg/injection, schedule: Q01DX009 (ip), vehicle: saline with Tween-80) is 100 % of control; the T/C (dose: 5.0 mg/kg/injection, schedule: Q01DX009 (ip), vehicle: saline with Tween-80) is 90 % of control; the T/C under setting [16] was 100 % of control.
Consider `CNC1=CC(=O)c2c(c3cc(OC(C)=O)ccc3n2C)C1=O`, for which the T/C was 99 % of control under setting [13], 99 % of control under setting [14] and 100 % of control under setting [15].
For the compound `COC1C=C(Br)C(=O)C(C)O1` (configuration not stated), the T/C (dose: 100.0 mg/kg/injection, schedule: Q04DX003 (ip), vehicle: Klucel (hydroxypropylcellulose) (HPC)) is 98 % of control and the T/C (dose: 200.0 mg/kg/injection, schedule: Q04DX003 (ip), vehicle: Klucel (hydroxypropylcellulose) (HPC)) is 106 % of control.
For `CSC(=S)N/N=C/c1nccc(-c2ccccc2)c1C`, the T/C by setting is: under setting [13], 97 % of control; under setting [14], 108 % of control; under setting [15], 96 % of control.
Regarding `C=Cc1ccc2cccc(O)c2n1`, the T/C (dose: 25.0 mg/kg/injection, schedule: Q01DX001 (ip), vehicle: saline with Tween-80) is 106 % of control; the T/C (dose: 50.0 mg/kg/injection, schedule: Q01DX001 (ip), vehicle: saline with Tween-80) was 106 % of control; the T/C (dose: 100.0 mg/kg/injection, schedule: Q01DX001 (ip), vehicle: saline with Tween-80) was 89 % of control and 94 % of control.
For the compound `Cn1nc(-c2cccnc2)[n+]([O-])c2c(=O)n(C)c(=O)nc1-2`, the T/C (dose: 45.0 mg/kg/injection, schedule: Q01DX009 (ip), vehicle: saline with Tween-80) was 100 % of control; the T/C (dose: 90.0 mg/kg/injection, schedule: Q01DX009 (ip), vehicle: saline with Tween-80) is 109 % of control; the T/C (dose: 180.0 mg/kg/injection, schedule: Q01DX009 (ip), vehicle: saline with Tween-80) is 112 % of control.
Consider `O=C(O)CCN1CCCc2ccccc21`, for which the T/C reads like this: (dose: 100.0 mg/kg/injection, schedule: Q04DX003 (ip), vehicle: other) 100 % of control; (dose: 200.0 mg/kg/injection, schedule: Q04DX003 (ip), vehicle: other) 100 % of control; (dose: 400.0 mg/kg/injection, schedule: Q04DX003 (ip), vehicle: other) 109 % of control.
With `NC1=NC(CNC(=O)c2cccc([N+](=O)[O-])c2)N(c2cccc(Cl)c2)C(N)=N1` (configuration not stated), the T/C is 100 % of control (dose: 50.0 mg/kg/injection, schedule: Q01DX005 (ip), vehicle: saline); 107 % of control (dose: 100.0 mg/kg/injection, schedule: Q01DX005 (ip), vehicle: saline); 109 % of control (dose: 200.0 mg/kg/injection, schedule: Q01DX005 (ip), vehicle: saline).
